Article PMC5268738, “A sequential multi-target Mps1 phosphorylation cascade promotes spindle checkpoint signaling” (eLife, 2017)
pKd: −log10 of the molar value. One block for each compound: values may come before it. Square brackets hold non-standard residues; d marks the D form. Ends that are not written are not given here. Peptide text beside a SMILES is read from it. pT = C[C@@H](OP(=O)(O)O)[C@H](N)C(=O)O; pS = N[C@@H](COP(=O)(O)O)C(=O)O

Key:
HeLa Tet-On cells = assay: mitotic index by flow cytometry, Bub1-depleted cells; type: cell-based, human; details: partial Bub1 depletion, BI 2536 1 µM, nocodazole; n = 3; as shown previously (Jia et al., 2016)
Description: HeLa Tet-On cells were initially purchased from Clontech (Mountain View, CA), and were cultured in Dulbecco’s Modified Eagle Medium (DMEM, Invitrogen, Carlsbad, CA) supplemented with 10% fetal bovine serum and 2 mM L-glutamine. The cells were authenticated by genome sequencing and metaphase chromosome spread, and were routinely checked by 4',6-diamidino-2-phenylindole (DAPI) staining to ascertain that they were free of mycoplasma contamination. For G1/S synchronization, cells were treated with 2 mM thymidine (Sigma, St. Louis, MO) for 14–16 hr. For mitotic arrest, cells were treated with 330 nM or 1 µM nocodazole (Sigma) or 100 nM taxol (Sigma) for 12–14 hr. Other chemicals used in this study were: RO3306 (Sigma) at 20 µM, BI 2536 (Selleck Chemicals, Houston, TX) at 1 µM, MG132 (Selleck Chemicals) at 10 µM, okadaic acid (LC lab, Woburn, MA) at 500 nM, and reversine (Cayman Chemical, Ann Arbor, MI) at 1 µM.
For RNAi experiments, cells were transfected with siRNA oligonucleotides (Dharmacon, Lafayette, CO) using Lipofectamine RNAiMAX (Invitrogen) and harvested at 24–72 hr after transfection. The sequences of the siRNAs were (from 5’ to 3’): siBub1-c, […] […]
Cells were synchronized at G1/S with thymidine and released into fresh medium containing 330 nM nocodazole for 13 hr before being harvested. […] The samples were analyzed on a FACSCalibur flow cytometer (BD Biosciences). […]

[1] = biological target: T1, C-terminal domain (CTD) of scMad1 (Saccharomyces cerevisiae, UniProt P40957); assay: ITC, scBub1 fragment or phospho-peptides with scMad1 CTD; type: binding; details: 20°C, 25 mM HEPES pH 7.5, 150 mM NaCl, scMad1 20 µM in cell, scBub1 phospho-peptide or fragment 300 µM injected, read-out: Kd, dissociation constant
T1 sequence (P40957 633-749 limits assumed): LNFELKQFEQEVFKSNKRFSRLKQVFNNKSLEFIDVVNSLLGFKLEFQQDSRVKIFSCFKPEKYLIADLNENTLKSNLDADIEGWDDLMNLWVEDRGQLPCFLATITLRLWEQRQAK
Description: All isothermal titration calorimetry (ITC) assays were performed with a MicroCal Omega ITC200 titration calorimeter (GE Life Sciences) at 20°C. Recombinant scMad1^CTD protein or scMad1–scMad2 complexes were dialyzed into the HEPES Buffer I (25 mM HEPES, pH 7.5, 150 mM NaCl). Recombinant human Mad1^CTD protein was dialyzed into the HEPES Buffer II (25 mM HEPES, pH 7.5, 50 mM NaCl). For each titration, 300 μl of scMad1 proteins (20 µM) or human Mad1 (50 µM) were added to the calorimeter cell. The scBub1 phospho-peptides or purified scMps1-phosphorylated scBub1_449–530 fragment (300 µM) in the HEPES Buffer I or the human Bub1 phospho-peptides (500 µM) in the HEPES Buffer II were injected with an injection syringe in 19 2-μl portions. The raw data were processed and fitted with the NITPIC software package ([Keller et al., 2012]).

Bub1^ΔK–Bub3 = assay: in vitro kinase assay on recombinant Bub1^ΔK–Bub3; type: biochemical, human; details: 400 nM Bub1^ΔK–Bub3, 50 nM Cdk1–Cyclin B1 or 500 nM Mps1, 1 mM ATP, room temperature, 30 min; blot
Description: For kinase assays, 1 μM Cdc20^ΔN60, 40 μM Mad1^E–Mad2, or 400 nM Bub1^ΔK–Bub3 was incubated with 40 nM Bub1, 500 nM Mps1, and/or 50 nM Cdk1–Cyclin B1 at room temperature for 30 min in the kinase buffer (25 mM Tris-HCl, pH 7.7, 100 mM NaCl, 10 mM MgCl2, 5 mM NaF, 20 mM β-glycerophosphate, 0.1 mM Na3VO4 and 1 mM DTT) supplemented with 1 mM ATP. The reaction mixtures were stopped with the appropriate kinase inhibitors for further protein-binding assays, or quenched with the SDS loading buffer and analyzed by Coomassie blue staining or Western blotting.

APC/C^Cdc20 = APC/C^Cdc20 inhibition by MCC components (securin ubiquitination assay); type: biochemical, Xenopus APC/C, human Cdc20; details: BubR1^N and Cdc20^ΔN60, no Bub1^ΔK–Bub3, Mad1^E–Mad2, Cdk1 or Mps1
HeLa cells = assay: mitotic arrest by Mis12–Mad1 fusion proteins (mitotic index); type: cell-based, human; details: no spindle poison
Description: Internal deletion mutants were constructed with overlapping extension polymerase chain reaction (PCR). Point mutations were introduced with QuikChange Lightening Site-Directed Mutagenesis kit (Agilent Technologies, Santa Clara, CA). All plasmids were verified by sequencing. Plasmid transfection was performed with the Effectene reagent (Qiagen, German Town, MD) according to the manufacturer’s instructions.
[…] For Plk1 inhibition, BI 2536 was added 1 hr prior to harvest. Collected cells were washed with PBS and fixed with pre-chilled 70% ethanol at −20°C overnight. After being washed with PBS, the fixed cells were permeabilized with 0.2% Triton X-100 in PBS for 20 min. Cells were then incubated with the anti-MPM2 antibody (1:100, Millipore) in PBS containing 1% BSA for 2 hr. After being washed with PBS, cells were incubated with fluorescent secondary antibodies (Invitrogen) in PBS containing 1% BSA for 30 min. After being washed with PBS, cells were stained with 20 μg/ml propidium iodide (Sigma) in PBS containing 200 μg/ml RNase (Qiagen). All staining steps were performed at room temperature. The samples were analyzed on a FACSCalibur flow cytometer (BD Biosciences). Data were processed with the FlowJo software. The mitotic index was defined as the percentage of cells that had 4N DNA content and were also positive for MPM2 staining. […]

human Mad1 CTD = assay: in vitro pull-down of human Mad1^CTD by Bub1 peptide beads; type: binding; details: peptides immobilized on SulfoLink resin, Coomassie
Description: Recombinant bait proteins or bacteria lysates containing bait proteins were incubated with the appropriate affinity beads. Bait-bound beads were then blocked with 2% fat-free milk when necessary before being mixed with 100 µl diluted prey proteins. After incubation, beads were washed and eluted with the SDS loading buffer. The bead-bound proteins were analyzed by Coomassie blue staining or Western blotting. […] In cases that synthesized peptides were used as bait, peptides were immobilized on SulfoLink resin (Thermo Scientific, Waltham, MA) according to the manufacturer’s instructions. The synthetic scBub1 peptides contained residues 449–473 of scBub1, various phospho-residues, and a cysteine at the N-terminus. All synthetic human Bub1 peptides, except the pS459 peptide, contained residue 455–477 of human Bub1, the appropriate phospho-residues, and a cysteine at the N-terminus. The Bub1 pS459 peptide contained residues 439–480, pT452/pS459, and a cysteine at the C-terminus.

Compound: CC[C@@H]1C(=O)N(C)c2cnc(Nc3ccc(C(=O)NC4CCN(C)CC4)cc3OC)nc2N1C1CCCC1 [BI 2536, reference compound]
effect of Plk1 inhibition with partial depletion of Bub1 on the spindle checkpoint (in words) (HeLa Tet-On cells): synergistically inactivated the spindle checkpoint and reduced nocodazole-triggered mitotic arrest

pKd [1]: 5.80
Compound: CC[C@H](C)[C@H](NC(=O)[C@H](C)NC(=O)[C@H](CC(=O)O)NC(=O)[C@H](CCCCN)NC(=O)[C@H](CO)NC(=O)[C@H](Cc1ccccc1)NC(=O)[C@H](C)NC(=O)[C@@H](NC(=O)[C@@H](NC(=O)[C@@H](NC(=O)[C@@H]1CCCN1C(=O)[C@H](CO)NC(=O)[C@H](CCCNC(=N)N)NC(=O)[C@H](CO)NC(=O)[C@@H](N)CS)[C@@H](C)OP(=O)(O)O)C(C)C)[C@@H](C)OP(=O)(O)O)C(=O)N[C@@H](CC(N)=O)C(=O)N[C@@H](CCC(=O)O)C(=O)N[C@H](C(=O)N[C@@H](Cc1ccccc1)C(=O)N[C@@H](CO)C(=O)N[C@@H](CCSC)C(=O)N[C@@H](Cc1ccccc1)C(=O)N[C@@H](CC(N)=O)C(=O)N[C@@H](CCC(N)=O)C(=O)N[C@@H](Cc1c[nH]cn1)C(=O)N[C@@H](Cc1ccc(O)cc1)C(=O)O)C(C)C [scBub1 pT453-pT455 peptide] (H-CSRSP[pT]V[pT]AFSKDAINEVFSMFNQHY-OH)

pKd [1]: 5.80
Compound: CC[C@H](C)[C@H](NC(=O)[C@H](C)NC(=O)[C@H](CC(=O)O)NC(=O)[C@H](CCCCN)NC(=O)[C@H](CO)NC(=O)[C@H](Cc1ccccc1)NC(=O)[C@H](C)NC(=O)[C@@H](NC(=O)[C@@H](NC(=O)[C@@H](NC(=O)[C@@H]1CCCN1C(=O)[C@H](CO)NC(=O)[C@H](CCCNC(=N)N)NC(=O)[C@H](CO)NC(=O)[C@@H](N)CS)[C@@H](C)O)C(C)C)[C@@H](C)OP(=O)(O)O)C(=O)N[C@@H](CC(N)=O)C(=O)N[C@@H](CCC(=O)O)C(=O)N[C@H](C(=O)N[C@@H](Cc1ccccc1)C(=O)N[C@@H](CO)C(=O)N[C@@H](CCSC)C(=O)N[C@@H](Cc1ccccc1)C(=O)N[C@@H](CC(N)=O)C(=O)N[C@@H](CCC(N)=O)C(=O)N[C@@H](Cc1c[nH]cn1)C(=O)N[C@@H](Cc1ccc(O)cc1)C(=O)O)C(C)C [scBub1 pT455 peptide] (H-CSRSPTV[pT]AFSKDAINEVFSMFNQHY-OH)

phosphorylation of Bub1^ΔK–Bub3 at S459 (in words) (Bub1^ΔK–Bub3): strongly phosphorylated at S459
Compound: Cdk1: recombinant GST-Cdk1 (T14A/Y15F) co-expressed with His6-Cyclin B1 [reference compound]

Compound: Mad2^Di: dimeric Mad2 separated by ion exchange chromatography
spontaneous functional MCC formation and APC/C^Cdc20 inhibition (in words) (APC/C^Cdc20): allowed the spontaneous formation of functional MCC that inhibited securin ubiquitination by APC/C^Cdc20

Compound: Mad2^Mono: monomeric Mad2, mostly the inactive O-Mad2
spontaneous functional MCC formation and APC/C^Cdc20 inhibition (in words) (APC/C^Cdc20): only showed weak APC/C^Cdc20 inhibition at very high doses

Compound: T716A: Mis12–Mad1 with T716A mutation
mitotic arrest by Mis12–Mad1 fusion protein (in words) (HeLa cells): abrogated the function of Mis12–Mad1 more strongly than simultaneously mutating the 13 sites outside of the CTD

Compound: pS459-pT461-pT464 peptide: triply phosphorylated synthetic human Bub1 peptide, residues 455–477, N-terminal cysteine (CKVQP[pS]P[pT]VH[pT]KEALGFIMNMFQA; UniProt O43683 455-477, looked up, fragment)
binding to human Mad1 CTD (in words) (human Mad1 CTD): bound more weakly to Mad1 than the pS459-pT461 peptide
